Key:
[1] = tested on: L5 spinal nerve ligated rats (mechanical allodynia, Chung model of neuropathic pain); assay: Antiallodynic activity, Chung model, manually applied von Frey probes; type: in vivo, rat (Sprague-Dawley); conditions: for % Maximum Possible Effect: time of peak effect
Method: (§1) The procedure used to test the antiallodynic activity of a compound of Formula (I) was the procedure for the measurement of allodynia found in the Chung Model (Kim S. H. and Chung J. M., An Experimental Model for Peripheral Neuropathy Produced by Segmental Spinal Nerve Ligation in the Rat, Pain, 1992, 50, 355–363).
Pathogen-free, male albino Sprague-Dawley rats, 200 g, were purchased from Harlan Industries (Indianapolis, Ind.) and maintained on a 12-h light/dark cycle (lights on at 06:00 h) in a climate-controlled room with food and water available ad libitum up to the time of the testing and food withdrawn 18 hr prior to testing.
The rats were anesthetized with isoflurane inhalant anesthesia. The left lumbar spinal nerve at the level of L5 was tightly ligated (4-0 silk suture) distal to the dorsal root ganglion and prior to entrance into the sciatic nerve, as described by Kim and Chung. The incisions were closed and the rats were allowed to recover under conditions described above. This procedure results in mechanical allodynia in the left hind paw. The sham operation, when performed, consisted of a similar surgical procedure lacking only the final ligation of the spinal nerve. Mechanical (tactile) allodynia was assessed by recording the pressure at which the affected paw (ipsilateral to the site of nerve injury) was withdrawn from graded stimuli (von Frey filaments ranging from 4.0 to 148.1 mN) applied by hand perpendicularly to the plantar surface of the paw (between the footpads) through wire-mesh observation cages. A paw withdrawal threshold (PWT) was determined by sequentially increasing and decreasing the stimulus strength and analyzing withdrawal data using a Dixon non-parametric test, as described by Chaplan et al (Chaplan S. R., Bach F. W., Pogrel J. W., Chung J. M. and Yaksh T. L., Quantitative Assessment of Tactile Allodynia in the Rat Paw, J Neurosci Meth, 1994, 53, 55–63). Normal rats, sham operated rats, and the contralateral paw of L5 ligated rats withstand at least 148.1 mN (equivalent to 15 g) of pressure without responding. […]

[2] = tested on: L5 and L6 spinal nerve ligated rats (mechanical allodynia); assay: Antiallodynic activity, Chung model, electronic Von Frey probes; type: in vivo, rat (Rj: Wistar (Han)); conditions: for % Change (force required to induce paw-withdrawal vs controls): ligatured paw
Source text: as §1
Pathogen-free, male Rj: Wistar (Han) rats (300–380 g) were purchased from Elevage Janvier, 53940 Le Genest-Saint-Isle, France. The animals were maintained on a 12-h light/dark cycle (lights on from 7:00–19:00) in a controlled ambient temperature of 21±1° C., and relative humidity maintained at 40–70%. The animals had free access to food (UAR 113) and tap water until tested.
Rats were anesthetized (sodium pentobarbital 40 mg/kg i.p.). A ligature was tied tightly around the left L5 and L6 spinal nerves. The rats received an i.m. injection of 50 000 IU Penicillin (Diamant®) and were allowed to recover. This procedure results in mechanical allodynia in the left hind paw. Two weeks after the surgery, when the allodynic state was fully developed, rats were submitted consecutively to tactile stimulation of both the non-lesioned and the lesioned hindpaws.
The animals were placed on an elevated grid floor in Plexiglass boxes (19×11.5×13 cm). The tip of an electronic Von Frey probe (Bioseb, Model 1610) was then applied with increasing pressure to the lesioned and non-lesioned hindpaws and the force required to induce paw-withdrawal was automatically recorded. Prior to receiving drug treatment all animals were submitted to tactile stimulation and assigned to treatment groups matched on the basis of their pain response. This procedure was carried out 3 times for each paw and the mean paw force was calculated to provide basic scores per animal. Data were expressed as percent change (means±SEM) of effectiveness from the controls. Statistical analysis was done using non-paired and paired Student's t tests.
As summarized in Table 2 below, the enantiomer of Formula (Ic) was evaluated at the doses 10, 30 and 100 mg/kg (n=8), administered p.o. in a volume of 5 mL/kg. Morphine ([…]) was used as reference substance. Control animals received a p.o. administration of vehicle. The test was performed blind 30, 60 and 90 minutes after drug administration.

Compound	% Maximum Possible Effect ([1]; 30 mg/Kg po, 30 minutes after oral dosing, n=5) [%]	% Maximum Possible Effect ([1]; 100 mg/Kg po, 30 to 60 minutes after oral dosing, n=10) [%]	Duration of antiallodynic response ([1]; 30 and 100 mg/Kg po, responses measured at 0.5, 1, 2 and 4 hours post dosing)	% Change (force required to induce paw-withdrawal vs controls) ([2]; 10 mg/kg p.o., 60 minute post-dosing, n=8) [%]	% Change (force required to induce paw-withdrawal vs controls) ([2]; 30 mg/kg p.o., 60 minute post-dosing, n=8) [%]	% Change (force required to induce paw-withdrawal vs controls) ([2]; 100 mg/kg p.o., 60 minute post-dosing, n=8) [%]	Effect on non-ligatured paw withdrawal force ([2]; 10, 30 and 100 mg/Kg p.o., 60 minute post-dosing)	Anti-allodynic effect at 90 minutes post-dosing ([2]; 10, 30 and 100 mg/Kg p.o., 90 minutes post-dosing)	% Change (force required to induce paw-withdrawal vs controls) ([2]; 128 mg/Kg morphine positive control) [%]
NC(=O)OC[C@H](OC(N)=O)c1ccccc1Cl [Formula (Ic)]	0	25.7	responses returned to baseline by one hour	69	115	88	without affecting the non-ligatured paw	no longer present by 90 minutes post-dosing	
CN1CC[C@]23c4c5ccc(O)c4O[C@H]2[C@@H](O)C=C[C@H]3[C@H]1C5 [morphine, reference compound]									38

Source: patent US7087643B2, “Carbamate compounds for use in preventing or treating neuropathic pain and cluster and migraine headache-associated pain” (Ortho-McNeil Pharmaceutical Inc., priority 2001, dated 2006)
